Values after ≈ are worked out from the molar mass of the structure shown. Like-named read-outs stand apart in the source and are kept apart here.
Columns and labels:
[1] = tested on: C. krusei (or I. orientalis); experiment: In vitro volatile assay, yeast infection species (Example 27); format: cell-based, Issatchenkia orientalis; conditions: Pichia kudriavzevii
Method: (§1) More specifically, growth inhibition of yeast infection fungal species C. albicans and C. krusei (or I. orientalis) by volatile treatment of Compound 10 was assessed via a volatile assay.
(§2) Volatile assay: 6-well (16.5 mL volume per well) microtiter plates are used in an in vitro inhibition assay for Compound 10 (i.e., Compound A). A 7.5-mL volume of half strength PDA is added to each well. After drying, a mycelial plug (5 mm diameter) is aseptically obtained from actively growing cultures of C. albicans and C. krusei (or I. orientalis) and placed at the center of the plate with the mycelial side in contact with the agar. A Whatman #1 filter disk (Cat. No. 1001-325) is placed, in duplicate, on the underside of a polyethylene PCR plate sealing film. […] The acetone/methanol is permitted to evaporate for 5 minutes. The headspace around the inoculum is then sealed inside the well by the film with the adhering disk containing the fungicide and incubated inverted for 5 days at 28° C.

[2] = tested on: Botrytis cinerea; experiment: Volatile application to strawberries in clamshells, treated clamshell vs fruit transfer (Example 21); format: in vivo; conditions: 0.1 mg/L headspace
Method: Eight strawberries (per repetition, in triplicate) are placed in an industry standard 1-lb PET clamshell with the stem-end facing down.
Compound A is then mixed with acetone and 100 μL of the mixture is pipetted into a small glass tube. […] Compound A is then introduced into the cabinet containing the clamshell by using the sublimation device set at 180° C. to achieve a final headspace concentration of 0.1 mg/L and equilibrated at 1° C. for 0.5 or 1 hour.
After incubation, both clamshells are removed from the treatment chamber. One clamshell is undisturbed while the fruit from the second clamshell are immediately transferred into a new untreated clamshell. All clamshells are then held at 1° C. for 5 days and then evaluated during an additional 5 days at 21° C. During the 5 days at 21° C., the fruits are evaluated for gray mold severity (scale 0 to 4, with ≤1 indicating marketable fruit and 4 indicating ≥50% of fruit surface covered by pathogen). […] The treated clamshell produces marketable fruit up to 3 days with 0.5 hour treatment (0.1), whereas fruits in new clamshells are unmarketable (2.7). Similarly, the treated clamshell produces marketable fruit up to 5 days with 1 hour treatment (0.4), whereas fruits in new clamshells are unmarketable (1.6). Thus, treatments where berries remain in the treated clamshells have the best level of control due to the compound further volatilizing over time off of the clamshell surface.

[3] = tested on: C. albicans; experiment: In vitro volatile assay, yeast infection species (Example 27); format: cell-based; conditions: Candida albicans
Method: as §1, §2

[4] = tested on: Penicillium digitatum; experiment: Green mold on orange, contact assay (Example 25); format: in vivo; conditions: Contact (dip); rate not given; day 3 at 21 C after 5 days at 1 C
Method: A 250 mL solution of each concentration is used to dip two inoculated fruits, one minute per fruit, performed in triplicate per rate. The dipped fruits are then placed back into the clamshells and then into the SnapWare container and incubated at 1° C. for 5 days. […] Volatile application of Compound A results in excellent inhibition of browning and sporulation, whereas all other active ingredients result in no or little inhibition.

[5] = tested on: Glomerella cingulata; experiment: Volatile MIC assay (Example 11); format: cell-based; conditions: Colletotrichum gloeosporioides, G. cingulata
Method: A 3-mL volume of full-strength Potato Dextrose Agar (PDA) is added to each well. After cooling, 1 μL of 1×10^5 spores per mL of Botrytis cinerea, Penicillium expansum, Alternaria alternata, Glomerella cingulata, Penicillium digitatum, Monilinia fruticola, Aspergillus brasiliensis, Colletotrichum acutatum, Fusarium sambucinum, Phytophthora capsici, Geotrichum candidum, Aspergillus niger, Diplodia gossypina or Diaporthe citrii suspension is spotted onto the center of the agar. […] The headspace around the inoculum is then sealed inside the well by the film with the adhering disk containing the fungicide by inverting the plates over the treated disks and sealing to prevent any of the chemical from flaking from the disk and falling onto the inoculated agar. After 3 days of storage at 23° C., cultures are evaluated for percent growth relative to control.

[6] = tested on: Penicillium expansum; experiment: Blue mold on apple, volatile assay; format: in vivo
Method: Compound A is mixed with acetone and 250 μL of the mixture is pipetted into a small glass tube. […] After incubation, fruits are evaluated by measuring the diameter (mm) of rot development (browning) up to 7 days at 21° C.

[7] = tested on: Epidermophyton floccus; experiment: In vitro contact assay (Example 26); format: cell-based; conditions: Epidermophyton, 120 h, 5 days at 28 C, 100% control, read-out: MIC (mg/L) Epidermophyton floccus
Method: (§3) Half-strength Potato Dextrose Agar (PDA) is amended with a mixture of one of the test compounds in acetone or methanol to a final concentration of 50, 10, 2, 0.4 or 0.08 mg/L. A 3-mL volume of the amended media is added to each well of the microtiter plate. […] The plates are sealed with a clear film and incubated inverted for 5 days at 28° C.

[8] = tested on: Trichophyton mentagrophytes; experiment: In vitro contact assay (Example 26); format: cell-based; conditions: Trichophyton mentagrophytes, 120 h, 5 days at 28 C, 100% control, read-out: MIC (mg/L) Trichophyton mentagrophytes
Method: as §3

[9] = tested on: Trichophyton rubrum; experiment: In vitro contact assay (Example 26); format: cell-based; conditions: Trichophyton rubrum, 120 h, 5 days at 28 C, 100% control, read-out: MIC (mg/L) Trichophyton rubrum
Method: as §3

[10] = tested on: Penicillium expansum; experiment: Blue mold on apple and pear, volatile assay (Example 25); conditions: 50 mg/L, day 3 at 21 C after 5 days at 1 C
Method: Two apples, pears or oranges are placed in a clamshell, and three fresh wounds are made near the equatorial region of each fruit. Each fruit wound is then inoculated with 20 μL of 1×10^6 spores per mL of Penicillium expansum or digitatum suspension, respectively. The inoculum is allowed to dry for two hours prior to treatment application as a volatile or contact.
Volatile Assay: Clamshells are then placed at the bottom of a 2.55-L SnapWare airtight container (Model #109842). […] The solutions are pipetted into Whatman filter disks mounted to the inside lid of the container. The chambers are then incubated at 1° C. for 5 days, removed to 21° C., and evaluated on day 3 by determining the diameter (mm) of rot development (browning) or sporulation.

SMILES: OB1OCc2cc(F)ccc21 [Compound A, 5-fluoro-1,3-dihydro-1-hydroxy-2,1-benzoxaborole]
- MIC ([1]; 120 h, read-out: minimum inhibitory concentration (MIC) for C. krusei): 35.7 µg/mL (≈ 235 µM)
- inhibition at 0.017 µg/mL ([1]; volatile, 0.017 mg/L, read-out: Growth Inhibition (%) C. krusei/I. orientalis): -1.3%
- inhibition at 0.035 µg/mL ([1]; volatile, 0.035 mg/L, read-out: Growth Inhibition (%) C. krusei/I. orientalis): -1.4%
- inhibition at 0.07 µg/mL ([1]; volatile, 0.07 mg/L, read-out: Growth Inhibition (%) C. krusei/I. orientalis): 0.5%
- inhibition at 0.1 µg/mL ([1]; volatile, 0.1 mg/L, read-out: Growth Inhibition (%) C. krusei/I. orientalis): 0.4%
- inhibition at 0.3 µg/mL ([1]; volatile, 0.3 mg/L, read-out: Growth Inhibition (%) C. krusei/I. orientalis): 1.2%
- inhibition at 0.6 µg/mL ([1]; volatile, 0.6 mg/L, read-out: Growth Inhibition (%) C. krusei/I. orientalis): -5.2%
- inhibition at […] ([1]; volatile, 1.1 mg/L, read-out: Growth Inhibition (%) C. krusei/I. orientalis): -0.2%
- inhibition at […] ([1]; volatile, 2.2 mg/L, read-out: Growth Inhibition (%) C. krusei/I. orientalis): 18.2%
- inhibition at […] ([1]; volatile, 4.5 mg/L, read-out: Growth Inhibition (%) C. krusei/I. orientalis): 22%
- inhibition at […] ([1]; volatile, 8.9 mg/L, read-out: Growth Inhibition (%) C. krusei/I. orientalis): 30.5%
- Disease Severity (0 to 4) ([2]; Treated clamshell, treatment time 0.5 hour, Day 1): 0.0
- Disease Severity (0 to 4) ([2]; Treated clamshell, treatment time 0.5 hour, Day 3): 0.1
- Disease Severity (0 to 4) ([2]; Treated clamshell, treatment time 0.5 hour, Day 5): 2.3
- Disease Severity (0 to 4) ([2]; Treated clamshell, treatment time 1 hour, Day 1): 0.0
- Disease Severity (0 to 4) ([2]; Treated clamshell, treatment time 1 hour, Day 3): 0.0
- Disease Severity (0 to 4) ([2]; Treated clamshell, treatment time 1 hour, Day 5): 0.4
- Disease Severity (0 to 4) ([2]; Untreated clamshell (fruit transfer), treatment time 0.5 hour, Day 1): 0.0
- Disease Severity (0 to 4) ([2]; Untreated clamshell (fruit transfer), treatment time 0.5 hour, Day 3): 2.7
- Disease Severity (0 to 4) ([2]; Untreated clamshell (fruit transfer), treatment time 0.5 hour, Day 5): 3.4
- Disease Severity (0 to 4) ([2]; Untreated clamshell (fruit transfer), treatment time 1 hour, Day 1): 0.0
- Disease Severity (0 to 4) ([2]; Untreated clamshell (fruit transfer), treatment time 1 hour, Day 3): 0.1
- Disease Severity (0 to 4) ([2]; Untreated clamshell (fruit transfer), treatment time 1 hour, Day 5): 1.6
- inhibition at 0.017 µg/mL ([3]; 0.017 mg/L, read-out: Growth Inhibition (%) C. albicans): 2%
- inhibition at 0.035 µg/mL ([3]; 0.035 mg/L, read-out: Growth Inhibition (%) C. albicans): 1.6%
- inhibition at 0.07 µg/mL ([3]; 0.07 mg/L, read-out: Growth Inhibition (%) C. albicans): 7.9%
- inhibition at 0.1 µg/mL ([3]; 0.1 mg/L, read-out: Growth Inhibition (%) C. albicans): 11.9%
- inhibition at 0.3 µg/mL ([3]; 0.3 mg/L, read-out: Growth Inhibition (%) C. albicans): 18.5%
- inhibition at 0.6 µg/mL ([3]; 0.6 mg/L, read-out: Growth Inhibition (%) C. albicans): 22.2%
- inhibition at […] ([3]; 1.1 mg/L, read-out: Growth Inhibition (%) C. albicans): 40.2%
- inhibition at […] ([3]; 2.2 mg/L, read-out: Growth Inhibition (%) C. albicans): 100%
- inhibition at […] ([3]; 4.5 mg/L, read-out: Growth Inhibition (%) C. albicans): 100%
- inhibition at […] ([3]; 8.9 mg/L, read-out: Growth Inhibition (%) C. albicans): 100%
- MIC ([3]; 120 h, 100% control, 5 days at 28 C, read-out: minimum inhibitory concentration (MIC) for C. albicans): 2.2 µg/mL (≈ 14.5 µM)
- Orange Sporulation (mm) [4]: >50 mm
- MIC [5]: 17.9 µg/mL (≈ 118 µM)
- Browning Rot (diameter; mm) ([6]; 0.02 mg/L, Day 0): 0.0 mm
- Browning Rot (diameter; mm) ([6]; 0.02 mg/L, Day 2): 0.9 mm
- Browning Rot (diameter; mm) ([6]; 0.02 mg/L, Day 4): 2.8 mm
- Browning Rot (diameter; mm) ([6]; 0.02 mg/L, Day 7): 6.9 mm
- Browning Rot (diameter; mm) ([6]; 0.1 mg/L, Day 0): 0.0 mm
- Browning Rot (diameter; mm) ([6]; 0.1 mg/L, Day 2): 0.0 mm
- Browning Rot (diameter; mm) ([6]; 0.1 mg/L, Day 4): 0.3 mm
- Browning Rot (diameter; mm) ([6]; 0.1 mg/L, Day 7): 2.0 mm
- Browning Rot (diameter; mm) ([6]; 0.5 mg/L, Day 0): 0.0 mm
- Browning Rot (diameter; mm) ([6]; 0.5 mg/L, Day 2): 0.0 mm
- Browning Rot (diameter; mm) ([6]; 0.5 mg/L, Day 4): 0.0 mm
- Browning Rot (diameter; mm) ([6]; 0.5 mg/L, Day 7): 0.4 mm
- Browning Rot (diameter; mm) ([6]; 2.5 mg/L, Day 0): 0.0 mm
- Browning Rot (diameter; mm) ([6]; 2.5 mg/L, Day 2): 0.0 mm
- Browning Rot (diameter; mm) ([6]; 2.5 mg/L, Day 4): 0.0 mm
- Browning Rot (diameter; mm) ([6]; 2.5 mg/L, Day 7): 0.0 mm
- MIC [7]: 2 mg/L (≈ 13.2 µM)
- MIC [8]: 2 mg/L (≈ 13.2 µM)
- MIC [9]: 2 mg/L (≈ 13.2 µM)
- Apple Browning (mm) [10]: 0.4 mm
- Apple Sporulation (mm) [10]: 0.0 mm
- Pear Browning (mm) [10]: 5.7 mm
- Pear Sporulation (mm) [10]: 0.0 mm

From US12329158B2, “Large-scale methods of uniformly coating packaging surfaces with a volatile antimicrobial to preserve food freshness” (AGROFRESH INC., priority 2013, dated 2025)
